From ChEMBL document CHEMBL1201862, “PubChem BioAssay data set” (2004)
Active and inactive are the calls of the source.

Columns and labels:
[1] = target: T1, RNA-binding protein pos-1 (Caenorhabditis elegans, UniProt G5EF15); experiment: inhibitors of POS-1/mex-3 RNA binding, dose response, biochemical, fluorescence polarization (AID 1964);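 further: purified POS-1 fused to maltose binding protein made in E. coli; potency of compounds blocking POS-1 binding to fluorescent RNA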
T1 sequence (G5EF15 whole entry): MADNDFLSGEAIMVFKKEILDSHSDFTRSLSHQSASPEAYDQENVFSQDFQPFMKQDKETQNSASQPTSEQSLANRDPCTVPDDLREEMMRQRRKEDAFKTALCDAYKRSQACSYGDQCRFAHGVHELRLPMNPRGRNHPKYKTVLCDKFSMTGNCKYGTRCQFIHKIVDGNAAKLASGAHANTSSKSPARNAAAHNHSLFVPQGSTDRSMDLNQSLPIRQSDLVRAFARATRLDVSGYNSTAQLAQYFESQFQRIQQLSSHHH

[2] = target: T2, Zinc finger protein mex-5 (Caenorhabditis elegans, UniProt Q9XUB2); experiment: MEX-5/TCR-2 RNA interaction inhibitors, dose response, biochemical, C. elegans, fluorescence polarization (AID 1960)
T2 sequence (Q9XUB2 whole entry): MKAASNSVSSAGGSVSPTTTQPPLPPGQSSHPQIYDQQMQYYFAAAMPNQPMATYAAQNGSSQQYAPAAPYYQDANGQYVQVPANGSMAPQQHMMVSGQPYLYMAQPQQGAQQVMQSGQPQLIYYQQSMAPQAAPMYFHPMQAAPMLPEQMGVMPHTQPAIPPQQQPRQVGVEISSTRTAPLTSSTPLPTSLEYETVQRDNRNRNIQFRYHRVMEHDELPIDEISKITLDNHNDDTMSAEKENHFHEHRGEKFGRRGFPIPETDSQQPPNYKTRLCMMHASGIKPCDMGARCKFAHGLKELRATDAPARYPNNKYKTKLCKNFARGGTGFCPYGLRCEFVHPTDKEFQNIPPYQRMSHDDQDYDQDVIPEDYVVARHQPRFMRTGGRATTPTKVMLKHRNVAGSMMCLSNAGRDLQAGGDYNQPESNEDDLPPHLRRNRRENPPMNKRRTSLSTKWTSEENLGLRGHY

Beta-lactamase [3] = target: Beta-lactamase (Pseudomonas aeruginosa, UniProt Q79MP6);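 further: biochemical dose-response test of metallo-beta-lactamase enzyme inhibition, read out by epi-absorbance; purified recombinant IMP-1 metallo-beta-lactamase with nitrocefin as substrate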
Beta-lactamase [4] = target: Beta-lactamase (Salmonella choleraesuis (strain SC-B67), UniProt Q5J463)
CHO = experiment: cytotoxicity in TLR9-MyD88 CHO cells, dose response, cytotoxicity control for TLR9-MyD88 binding inhibitor project, cell-based, luminescence (AID 588339); assay type: functional, hamster; conditions: Cricetulus griseus;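 further: CHO cells stably coexpressing TLR9 and MyD88 fusions from primary screen; compound exposure lasted 48 hours before viability readout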
Beta Lactamase = Beta Lactamase (Pseudomonas aeruginosa, UniProt Q932Y6); experiment: beta-lactamase reporter inhibitor potency, dose response, artefact control for TLR9-MyD88 binding inhibitor project, BLA reporter cells, FRET fluorescence (AID 588341); assay type: cell-based;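 further: cell based assay in CHO-K1 cells stably expressing beta-lactamase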
[5] = target: T3, High affinity choline transporter 1 (Homo sapiens, UniProt Q9GZV3); experiment: CHT activators, dose response, cell-based, 10-point CRC, membrane potential dye (AID 602376); assay type: functional
T3 sequence (Q9GZV3 whole entry): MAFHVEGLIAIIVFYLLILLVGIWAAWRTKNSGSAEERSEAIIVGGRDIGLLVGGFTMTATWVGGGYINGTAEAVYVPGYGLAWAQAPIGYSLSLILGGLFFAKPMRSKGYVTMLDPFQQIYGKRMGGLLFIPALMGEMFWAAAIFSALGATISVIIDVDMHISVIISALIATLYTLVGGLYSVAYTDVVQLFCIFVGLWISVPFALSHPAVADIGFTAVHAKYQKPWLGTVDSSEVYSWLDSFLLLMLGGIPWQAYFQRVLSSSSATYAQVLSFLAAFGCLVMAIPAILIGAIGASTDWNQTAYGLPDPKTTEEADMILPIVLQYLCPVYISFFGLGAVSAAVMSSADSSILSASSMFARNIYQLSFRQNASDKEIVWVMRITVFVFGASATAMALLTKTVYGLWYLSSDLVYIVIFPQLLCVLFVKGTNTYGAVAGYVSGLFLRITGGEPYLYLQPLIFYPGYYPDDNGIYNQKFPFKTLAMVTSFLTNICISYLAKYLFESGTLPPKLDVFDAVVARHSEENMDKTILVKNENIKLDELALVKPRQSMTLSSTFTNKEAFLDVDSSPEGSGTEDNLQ

[6] = target: Glycogen synthase kinase-3 alpha (Homo sapiens, UniProt P49840); experiment: Inhibition of Human GSK-3 alpha Activity Measured in Biochemical System Using Microfluidics - 2063-06_Inhibitor_Dose_DryPowder_Activity_Set2. [Related pubchem assays (depositor defined):AID2709]
[7] = target: Glycogen synthase kinase-3 beta (Homo sapiens, UniProt P49841); experiment: Inhibition of Human GSK-3 beta Activity Measured in Biochemical System Using Microfluidics - 2063-05_Inhibitor_Dose_DryPowder_Activity_Set2. [Related pubchem assays (depositor defined):AID2709]
[8] = target: Cyclin-dependent kinase 5/CDK5 activator 1 (Homo sapiens, UniProt Q00535); experiment: CDK5-p25 kinase inhibitors, specificity check, dose response, selectivity assay for GSK-3 alpha inhibitor project, biochemical, microfluidic mobility shift, dry powder (AID 588430)
[9] = target: T4, Sentrin-specific protease 8 (Homo sapiens, UniProt Q96LD8); experiment: SENP8 protease inhibitors, SAR follow-up, biochemical, luminescence (AID 504501); assay type: functional
T4 sequence (Q96LD8 whole entry): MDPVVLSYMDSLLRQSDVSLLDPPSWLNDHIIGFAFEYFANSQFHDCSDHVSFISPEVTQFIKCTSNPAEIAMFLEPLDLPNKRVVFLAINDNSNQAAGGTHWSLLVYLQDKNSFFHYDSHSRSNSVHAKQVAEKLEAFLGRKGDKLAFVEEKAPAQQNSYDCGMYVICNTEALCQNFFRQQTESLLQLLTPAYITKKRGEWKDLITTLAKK

Caspase-3 [10] = target: T5, Caspase-3 (Homo sapiens, UniProt P42574); experiment: caspase-3 inhibitors as off-family protease, SAR follow-up, selectivity assay for SENP protease inhibitor project, biochemical, luminescence, set 2 (AID 588599); assay type: functional
T5 sequence (P42574 whole entry): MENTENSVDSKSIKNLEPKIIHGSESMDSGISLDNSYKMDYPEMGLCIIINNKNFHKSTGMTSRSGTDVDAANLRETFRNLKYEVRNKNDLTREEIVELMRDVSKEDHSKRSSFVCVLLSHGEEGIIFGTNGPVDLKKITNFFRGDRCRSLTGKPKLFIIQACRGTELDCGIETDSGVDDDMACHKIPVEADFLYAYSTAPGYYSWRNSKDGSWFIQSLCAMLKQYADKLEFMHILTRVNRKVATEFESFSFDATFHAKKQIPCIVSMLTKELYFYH

[11] = target: T4, Sentrin-specific protease 8; experiment: SENP8 protease inhibitors, SAR follow-up, biochemical, luminescence, set 2 (AID 588601); assay type: functional
Caspase-3 [12] = target: T5, Caspase-3; experiment: SAR Analysis of small molecule inhibitors of Sentrin-specific proteases (SENPs) using a Caspase-3 Selectivity assay. [Related pubchem assays (depositor defined):AID2540, AID2599, AID434973, AID489001]; assay type: functional
[13] = target: T6, Sentrin-specific protease 7 (Homo sapiens, UniProt Q9BQF6); experiment: SENP7 protease inhibitors, SAR follow-up, biochemical, luminescence, set 2 (AID 588600); assay type: functional
T6 sequence (Q9BQF6 whole entry): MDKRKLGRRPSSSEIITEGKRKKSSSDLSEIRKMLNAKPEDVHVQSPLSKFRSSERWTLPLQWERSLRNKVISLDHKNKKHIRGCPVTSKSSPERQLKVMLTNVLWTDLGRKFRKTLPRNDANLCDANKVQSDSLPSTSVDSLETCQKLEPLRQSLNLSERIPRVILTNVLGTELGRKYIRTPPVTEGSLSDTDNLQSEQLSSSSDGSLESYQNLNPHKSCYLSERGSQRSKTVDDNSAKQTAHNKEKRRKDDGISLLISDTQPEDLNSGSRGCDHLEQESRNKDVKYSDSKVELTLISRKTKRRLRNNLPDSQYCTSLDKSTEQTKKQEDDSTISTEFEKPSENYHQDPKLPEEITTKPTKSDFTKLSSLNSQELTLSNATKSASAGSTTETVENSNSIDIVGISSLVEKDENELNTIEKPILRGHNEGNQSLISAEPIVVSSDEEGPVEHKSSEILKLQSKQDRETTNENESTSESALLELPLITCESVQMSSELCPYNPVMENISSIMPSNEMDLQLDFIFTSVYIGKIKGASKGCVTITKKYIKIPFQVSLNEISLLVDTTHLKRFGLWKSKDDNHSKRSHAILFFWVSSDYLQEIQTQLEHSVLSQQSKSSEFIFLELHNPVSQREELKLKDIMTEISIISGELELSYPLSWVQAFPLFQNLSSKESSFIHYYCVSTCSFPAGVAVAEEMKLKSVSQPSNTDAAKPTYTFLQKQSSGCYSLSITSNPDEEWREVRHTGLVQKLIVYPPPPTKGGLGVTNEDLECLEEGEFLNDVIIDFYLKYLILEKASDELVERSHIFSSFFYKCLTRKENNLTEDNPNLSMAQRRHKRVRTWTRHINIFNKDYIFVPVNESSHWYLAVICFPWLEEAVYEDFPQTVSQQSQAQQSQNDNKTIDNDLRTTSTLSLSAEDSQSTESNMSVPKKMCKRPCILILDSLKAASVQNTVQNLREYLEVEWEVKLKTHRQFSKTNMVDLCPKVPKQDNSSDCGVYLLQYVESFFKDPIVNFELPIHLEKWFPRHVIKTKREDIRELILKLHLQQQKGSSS

[14] = target: T7, Sentrin-specific protease 6 (Homo sapiens, UniProt Q9GZR1); experiment: SAR Analysis of small molecule inhibitors of Sentrin-specific protease 6 (SENP6) using a Luminescent assay. [Related pubchem assays (depositor defined):AID2582, AID2599]; assay type: functional
T7 sequence (Q9GZR1 whole entry): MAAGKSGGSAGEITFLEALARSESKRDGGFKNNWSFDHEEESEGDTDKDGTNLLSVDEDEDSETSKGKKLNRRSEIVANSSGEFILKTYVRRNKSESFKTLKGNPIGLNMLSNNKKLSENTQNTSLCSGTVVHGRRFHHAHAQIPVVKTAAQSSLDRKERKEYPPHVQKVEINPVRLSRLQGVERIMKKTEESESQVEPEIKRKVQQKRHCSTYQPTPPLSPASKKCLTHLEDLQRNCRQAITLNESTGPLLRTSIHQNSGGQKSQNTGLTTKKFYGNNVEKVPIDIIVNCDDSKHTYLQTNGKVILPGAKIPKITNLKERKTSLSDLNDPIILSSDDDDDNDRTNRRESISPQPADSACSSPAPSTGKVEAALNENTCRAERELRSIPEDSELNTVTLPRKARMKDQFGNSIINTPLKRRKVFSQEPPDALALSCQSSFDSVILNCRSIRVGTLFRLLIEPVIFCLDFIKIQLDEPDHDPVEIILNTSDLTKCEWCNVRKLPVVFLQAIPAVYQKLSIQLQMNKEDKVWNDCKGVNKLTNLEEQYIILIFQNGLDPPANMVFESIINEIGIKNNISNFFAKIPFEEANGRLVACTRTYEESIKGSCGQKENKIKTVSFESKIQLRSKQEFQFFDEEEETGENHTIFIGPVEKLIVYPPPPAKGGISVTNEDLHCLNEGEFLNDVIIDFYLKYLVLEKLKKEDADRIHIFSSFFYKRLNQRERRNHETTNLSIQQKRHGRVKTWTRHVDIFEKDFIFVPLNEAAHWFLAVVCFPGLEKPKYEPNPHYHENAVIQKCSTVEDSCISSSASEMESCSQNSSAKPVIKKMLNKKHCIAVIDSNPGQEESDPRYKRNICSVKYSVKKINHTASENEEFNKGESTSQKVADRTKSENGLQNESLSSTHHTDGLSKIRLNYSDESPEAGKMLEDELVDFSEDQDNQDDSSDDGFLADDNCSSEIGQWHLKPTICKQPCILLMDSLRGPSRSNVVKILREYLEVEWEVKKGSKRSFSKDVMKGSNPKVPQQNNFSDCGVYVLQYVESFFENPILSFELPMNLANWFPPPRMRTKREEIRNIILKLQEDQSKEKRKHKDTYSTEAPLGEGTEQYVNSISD

[15] = target: T7, Sentrin-specific protease 6; experiment: SENP6 protease inhibitors, SAR follow-up, biochemical, luminescence, set 2 (AID 588598); assay type: functional
[16] = target: T6, Sentrin-specific protease 7; experiment: SENP7 protease inhibitors, SAR follow-up, biochemical, luminescence (AID 504497); assay type: functional

Beta-lactamase (Pseudomonas aeruginosa, UniProt Q79MP6), sequence (Q79MP6 whole entry): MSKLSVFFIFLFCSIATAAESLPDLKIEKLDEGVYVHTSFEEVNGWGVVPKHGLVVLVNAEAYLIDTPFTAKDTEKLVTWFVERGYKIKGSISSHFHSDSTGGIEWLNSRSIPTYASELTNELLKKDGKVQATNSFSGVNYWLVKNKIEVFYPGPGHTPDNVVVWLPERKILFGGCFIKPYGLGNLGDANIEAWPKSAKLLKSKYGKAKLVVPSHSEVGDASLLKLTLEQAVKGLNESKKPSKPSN
Cyclin-dependent kinase 5/CDK5 activator 1, sequence (Q00535 whole entry): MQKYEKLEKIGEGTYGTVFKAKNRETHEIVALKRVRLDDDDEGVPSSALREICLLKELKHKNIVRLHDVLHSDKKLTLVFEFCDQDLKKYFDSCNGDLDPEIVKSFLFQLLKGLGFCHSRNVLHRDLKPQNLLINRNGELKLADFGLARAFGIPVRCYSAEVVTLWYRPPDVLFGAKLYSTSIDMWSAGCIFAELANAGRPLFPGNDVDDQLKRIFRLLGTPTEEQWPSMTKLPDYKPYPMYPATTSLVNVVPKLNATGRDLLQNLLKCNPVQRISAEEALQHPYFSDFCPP
Cyclin-dependent kinase 5/CDK5 activator 1, sequence (Q15078 whole entry, further chain): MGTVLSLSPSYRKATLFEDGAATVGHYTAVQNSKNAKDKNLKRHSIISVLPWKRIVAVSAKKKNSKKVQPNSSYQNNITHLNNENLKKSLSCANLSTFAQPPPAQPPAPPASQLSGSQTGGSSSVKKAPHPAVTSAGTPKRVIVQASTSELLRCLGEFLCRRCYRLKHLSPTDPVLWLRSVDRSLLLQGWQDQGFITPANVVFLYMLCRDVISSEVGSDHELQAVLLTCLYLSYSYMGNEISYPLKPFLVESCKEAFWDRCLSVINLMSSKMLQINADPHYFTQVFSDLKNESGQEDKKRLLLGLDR
Glycogen synthase kinase-3 alpha, sequence (P49840 whole entry): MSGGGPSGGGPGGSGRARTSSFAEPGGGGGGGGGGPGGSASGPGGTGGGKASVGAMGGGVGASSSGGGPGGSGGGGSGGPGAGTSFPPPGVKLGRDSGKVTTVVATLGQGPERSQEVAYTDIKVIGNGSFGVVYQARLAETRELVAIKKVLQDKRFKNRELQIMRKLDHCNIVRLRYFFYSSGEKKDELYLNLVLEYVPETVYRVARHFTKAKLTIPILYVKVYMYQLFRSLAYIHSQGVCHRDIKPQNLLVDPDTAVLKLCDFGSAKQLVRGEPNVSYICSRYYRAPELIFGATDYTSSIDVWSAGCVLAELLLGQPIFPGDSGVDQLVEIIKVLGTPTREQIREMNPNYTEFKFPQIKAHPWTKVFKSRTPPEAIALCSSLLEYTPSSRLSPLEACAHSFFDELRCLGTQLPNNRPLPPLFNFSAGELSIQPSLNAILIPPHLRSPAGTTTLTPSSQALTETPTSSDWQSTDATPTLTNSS
Beta-lactamase (Salmonella choleraesuis (strain SC-B67), UniProt Q5J463), sequence (Q5J463 whole entry, the tested form may be a part): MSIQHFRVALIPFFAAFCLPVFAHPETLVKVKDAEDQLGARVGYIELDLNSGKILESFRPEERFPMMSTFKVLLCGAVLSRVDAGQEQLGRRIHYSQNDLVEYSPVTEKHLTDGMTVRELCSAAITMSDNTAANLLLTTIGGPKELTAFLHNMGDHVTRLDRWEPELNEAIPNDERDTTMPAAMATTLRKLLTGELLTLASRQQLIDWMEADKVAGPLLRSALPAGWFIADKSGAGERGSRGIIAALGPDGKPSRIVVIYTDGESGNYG
Beta Lactamase, sequence (Q932Y6 whole entry): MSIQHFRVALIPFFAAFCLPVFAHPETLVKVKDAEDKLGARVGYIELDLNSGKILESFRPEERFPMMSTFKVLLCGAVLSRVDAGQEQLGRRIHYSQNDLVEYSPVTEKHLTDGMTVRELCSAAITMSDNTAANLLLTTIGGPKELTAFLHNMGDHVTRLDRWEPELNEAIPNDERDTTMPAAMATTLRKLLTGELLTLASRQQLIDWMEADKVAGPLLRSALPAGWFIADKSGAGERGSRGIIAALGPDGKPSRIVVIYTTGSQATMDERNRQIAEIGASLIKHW
Glycogen synthase kinase-3 beta, sequence (P49841 whole entry): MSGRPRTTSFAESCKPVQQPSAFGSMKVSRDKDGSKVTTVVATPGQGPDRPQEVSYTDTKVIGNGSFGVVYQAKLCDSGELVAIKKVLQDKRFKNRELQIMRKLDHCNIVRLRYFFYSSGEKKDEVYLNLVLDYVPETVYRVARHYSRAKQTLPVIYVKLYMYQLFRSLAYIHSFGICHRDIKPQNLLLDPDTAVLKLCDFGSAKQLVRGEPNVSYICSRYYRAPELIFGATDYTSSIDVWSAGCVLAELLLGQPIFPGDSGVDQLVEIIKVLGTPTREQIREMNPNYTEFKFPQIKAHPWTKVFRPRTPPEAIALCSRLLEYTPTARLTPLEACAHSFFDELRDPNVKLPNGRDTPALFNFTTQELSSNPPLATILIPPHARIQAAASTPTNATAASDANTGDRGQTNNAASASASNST

With `CCN(CC)c1ccc(/C=C/C(=O)c2ccc(Br)cc2)cc1` the EC50 [1] was 13.8 µM (inconclusive), the EC50 [2] was 13.5 µM (inconclusive) and the IC50 (Beta-lactamase [3]) was 11 µM (inactive). The IC50 (Beta-lactamase [4]) was 3.09 µM (active), the IC50 (CHO) was > 49.7 µM (inactive) and the IC50 (Beta Lactamase) was 3.82 µM (active).

`CN(Cc1ccc(F)cc1)C(=O)c1sccc1-c1ccccc1` was tested, and the EC50 [5] was 18.2 µM (active).

In the case of `O=C(CN1C(=O)CCC1=O)Nc1cccc2c1C(=O)NC2=O`, the AC50 [6] is reported as 0.459 µM (active), the AC50 [7] is reported as 0.261 µM (active) and the AC50 [8] is reported as 20.2 µM (active).

`CCCCc1ccc2nc(NC(=O)c3ccco3)sc2c1` was tested, and the IC50 [9] was 2 µM (active), the IC50 (Caspase-3 [10]) was 3.36 µM (active) and the IC50 [11] was 2.95 µM (active). For the same compound, the IC50 (Caspase-3 [12]) was 4 µM (active), the IC50 [13] was 3.3 µM (active) and the IC50 [14] was 1.8 µM (active). The IC50 [15] was 2.89 µM (active) and the IC50 [16] was 1.6 µM (active).
